Several values for one entry are separate records, joined by “and”; a condition that tells them apart may be missing. Equal values may be shown once. Read-outs that look alike come from different tables or passages of the source.
Tests used:
CYP3A4 [1] = conditions: cited from earlier work
CYP3A = conditions: multiple oral 600 mg rifampicin; cited from earlier work
CYP2B6 = CYP2B6 mRNA induction in cultured human hepatocytes
P-gp = P-gp mRNA induction in cultured human hepatocytes; type: cell-based
P-gp (human MDR1) = P-gp (human MDR1) (Homo sapiens, UniProt P08183); experiment: In vitro P-gp inhibition: 3H-digoxin permeation across control and MDR1-expressing LLC-PK1 cell monolayers
Chain of P-gp (human MDR1) (P08183 whole entry): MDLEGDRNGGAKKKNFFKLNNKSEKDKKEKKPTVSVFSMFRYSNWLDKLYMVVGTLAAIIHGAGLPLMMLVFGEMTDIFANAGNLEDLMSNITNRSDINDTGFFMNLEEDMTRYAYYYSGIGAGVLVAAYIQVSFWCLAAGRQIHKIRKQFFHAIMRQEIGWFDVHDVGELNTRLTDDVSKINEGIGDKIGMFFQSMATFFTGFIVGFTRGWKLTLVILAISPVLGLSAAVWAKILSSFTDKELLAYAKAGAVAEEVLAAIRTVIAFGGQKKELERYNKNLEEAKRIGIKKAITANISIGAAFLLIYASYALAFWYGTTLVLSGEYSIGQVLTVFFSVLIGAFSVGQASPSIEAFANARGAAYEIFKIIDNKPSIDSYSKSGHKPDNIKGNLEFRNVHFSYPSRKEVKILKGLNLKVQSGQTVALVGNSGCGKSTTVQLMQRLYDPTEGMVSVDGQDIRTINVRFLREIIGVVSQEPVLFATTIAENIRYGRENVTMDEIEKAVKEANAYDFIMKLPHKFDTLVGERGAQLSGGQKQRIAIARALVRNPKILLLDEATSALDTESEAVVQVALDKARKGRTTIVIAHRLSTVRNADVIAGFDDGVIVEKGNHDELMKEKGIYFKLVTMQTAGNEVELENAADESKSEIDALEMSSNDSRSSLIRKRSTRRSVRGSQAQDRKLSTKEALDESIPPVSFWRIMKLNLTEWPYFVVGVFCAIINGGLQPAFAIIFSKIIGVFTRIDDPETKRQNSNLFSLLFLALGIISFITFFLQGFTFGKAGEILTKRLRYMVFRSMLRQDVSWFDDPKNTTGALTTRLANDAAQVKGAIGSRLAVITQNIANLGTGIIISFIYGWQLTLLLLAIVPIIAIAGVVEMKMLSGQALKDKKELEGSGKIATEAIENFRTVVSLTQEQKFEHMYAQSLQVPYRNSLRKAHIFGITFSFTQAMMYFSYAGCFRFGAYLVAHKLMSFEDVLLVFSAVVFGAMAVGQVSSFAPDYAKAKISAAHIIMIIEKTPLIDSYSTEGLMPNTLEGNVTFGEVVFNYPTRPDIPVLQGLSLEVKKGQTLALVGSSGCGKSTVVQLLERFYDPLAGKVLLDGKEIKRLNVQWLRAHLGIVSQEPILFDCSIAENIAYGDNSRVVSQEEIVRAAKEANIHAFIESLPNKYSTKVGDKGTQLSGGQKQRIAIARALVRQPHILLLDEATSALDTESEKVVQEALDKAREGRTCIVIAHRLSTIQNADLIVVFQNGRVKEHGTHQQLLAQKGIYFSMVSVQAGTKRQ
Procedure: MDR1-expressing cells (porcine kidney epithelial LLC-PK1 cells transfected with human MDR1 cDNA) was used. The MDR1-expressing cells were seeded at a density of 4 × 10^4 cells/insert in plates and were incubated in a CO2 incubator (37 °C, CO2: 5%) for 7 to 9 days to prepare cell monolayers. […] After incubation for 4 h at 37 °C, a 70-μL aliquot of the incubation solutions was collected as the analytical sample from the opposite compartment of that spiked with test solutions (receiver compartment). The collected samples were immediately combined with 10 mL of scintillator, and the radioactivity was counted using the LSC. Permeability coefficient (Papp) of ^3H-digoxin was calculated using the following equation: Pappcm/sec=[dQ/dt]/A/C0 where dQ/dt is the transport rate (dpm/sec); A is the membrane area (cm^2); C0 is the initial concentration (dpm/mL). The ratio of permeability coefficient (Papp ratio) was calculated from the basal to apical Papp and apical to basal Papp according to the following equation: Pappratio=BasaltoapicalPapp/ApicaltobasalPapp
Furthermore, the ratios of the Papp ratios in MDR1-expressing cells to the Papp ratios in control cells were calculated as corrected Papp ratio according to the following equation: CorrectedPappratio=PappratiooftheMDR1expressingcells/Pappratioofthecontrolcells
The % of control was calculated from the corrected Papp ratio according to the following equation: \% \,of\,control=CorrectedPappratio\,in\,the\,absence\,or\,presence\,of\,inhibitors/CorrectedPappratio\,in\,the\,absence\,of\,inhibitors×100

CYP3A4 [2] = system: CYP3A4
Procedure: (§1) Hepatocytes were cultured according to previously described methods [8]. […] Single-stranded cDNA was prepared from RNA with the RT Master Mix using the AB 7900HT Fast Real Time PCR System thermocycling program. Quantitative RT-PCR was carried out in triplicate. Relative quantification measures the change in mRNA expression in a test sample relative to that in a control sample (e.g., DMSO). This method assumes that the efficiency of the target amplification and the efficiency of the endogenous control amplification are approximately equal.
(§2) The maximal fold induction (Indmax) and half concentration to reach Indmax (IndC50) were determined based on the following equation: Foldinduction=1+Indmax-1×Ct/IndC50+Ct where Ct is the test drug concentration.

CYP1A2 = CYP1A2 mRNA induction in cultured human hepatocytes
Procedure: as §1, §2

CYP2C8 = CYP2C8 mRNA induction in cultured human hepatocytes
Procedure: as §1, §2

CYP2C9 = CYP2C9 mRNA induction in cultured human hepatocytes
Procedure: as §1, §2

CYP2C19 = CYP2C19 mRNA induction in cultured human hepatocytes
Procedure: as §1, §2

[3] = PBPK models of enzalutamide and M2 (Simcyp)
Text: Many of the physicochemical properties and plasma protein binding data were obtained internally and also referenced from FDA documents, which are available from the FDA website. […] Accordingly, the solution formulation option in the Simcyp model was used.
The PBPK models of CYP2C8 inhibitor (gemfibrozil), CYP3A4 substrate (midazolam), and P-gp substrate (digoxin) were used from the Simcyp software library with models that were verified for their intended purpose.

OAT3 = biological target: T1, OAT3 (Homo sapiens, UniProt Q8TCC7); experiment: In vitro OAT3 inhibition (internal data); type: cell-based
T1 sequence (Q8TCC7 1-542): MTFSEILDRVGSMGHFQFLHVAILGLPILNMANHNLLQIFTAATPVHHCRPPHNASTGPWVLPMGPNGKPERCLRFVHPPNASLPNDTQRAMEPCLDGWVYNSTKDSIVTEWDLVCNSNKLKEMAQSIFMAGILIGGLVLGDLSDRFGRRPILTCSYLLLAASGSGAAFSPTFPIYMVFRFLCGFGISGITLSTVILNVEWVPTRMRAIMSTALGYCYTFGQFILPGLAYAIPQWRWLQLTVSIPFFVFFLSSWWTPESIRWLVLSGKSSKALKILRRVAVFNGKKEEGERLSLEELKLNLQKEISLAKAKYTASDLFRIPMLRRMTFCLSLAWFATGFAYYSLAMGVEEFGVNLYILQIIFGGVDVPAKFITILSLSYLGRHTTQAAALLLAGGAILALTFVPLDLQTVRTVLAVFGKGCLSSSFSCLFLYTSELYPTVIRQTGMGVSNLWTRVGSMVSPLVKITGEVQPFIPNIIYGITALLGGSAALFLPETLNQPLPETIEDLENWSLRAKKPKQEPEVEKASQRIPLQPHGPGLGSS

[4] = mean
[5] = plasma; ref FDA CP review; cited from earlier work
[6] = multiple 160 mg doses of enzalutamide, mean (SD)
[7] = with/without enzalutamide 160 mg multiple doses, geometric mean ratio (90% CI)
[8] = 100 µmol/L (enzalutamide, M2: two lots of hepatocyte)
[9] = 3H-digoxin 1 µmol/L, additive 0.3 µmol/L
[10] = 3H-digoxin 1 µmol/L, additive 1 µmol/L
[11] = 3H-digoxin 1 µmol/L, additive 3 µmol/L
[12] = 3H-digoxin 1 µmol/L, additive 10 µmol/L
[13] = 3H-digoxin 1 µmol/L, additive 30 µmol/L
[14] = 3H-digoxin 1 µmol/L, additive 80 µmol/L
[15] = 3H-digoxin 1 µmol/L, additive 0.1 µmol/L
[16] = 3H-digoxin 1 µmol/L, additive 25 µmol/L
[17] = once-daily oral 160 mg enzalutamide for 49 days
[18] = single oral 160 mg enzalutamide

Structure (SMILES): Cc1ncc2n1-c1ccc(Cl)cc1C(c1ccccc1F)=NC2 [Midazolam, midazolam]
- AUC without enzalutamide, observed (CYP3A4 [1]; mean (SD)): 32.0 (12.8) ng·h/mL
- Cmax without enzalutamide, observed (CYP3A4 [1]; mean (SD)): 9.98 (3.17) ng/mL
- AUC with enzalutamide, observed (CYP3A4 [1]; [6]): 4.22 (0.784) ng·h/mL
- Cmax with enzalutamide, observed (CYP3A4 [1]; [6]): 2.29 (0.868) ng/mL
- AUC ratio, observed (CYP3A4 [1]; [7]): 0.14 (0.12–0.17)
- Cmax ratio, observed (CYP3A4 [1]; [7]): 0.23 (0.20–0.27)
- Decrease in midazolam AUC by rifampicin (CYP3A): more than 90%
- Midazolam AUC ratio with rifampicin (CYP3A): less than 0.1

Structure (SMILES): CC1(C)C(=O)N(c2ccc(C#N)c(C(F)(F)F)c2)C(=S)N1c1ccc(C(=O)O)c(F)c1 [M1]
- Fold increase CYP2B6 mRNA (CYP2B6; 1 µmol/L): 0.724 ± 0.316 fold
- Fold increase CYP2B6 mRNA (CYP2B6; 10 µmol/L): 1.03 ± 0.43 fold
- Fold increase CYP2B6 mRNA (CYP2B6; [8]): 0.848 ± 0.337 fold
- Fold increase P-gp mRNA (P-gp; 1 µmol/L): 0.885 ± 0.553 fold
- Fold increase P-gp mRNA (P-gp; 10 µmol/L): 1.46 ± 0.79 fold
- Fold increase P-gp mRNA (P-gp; [8]): 1.32 ± 0.25 fold
- Control cells Papp ratio (P-gp (human MDR1); [9]): 1.3
- Corrected Papp ratio (P-gp (human MDR1); [9]): 13.2
- MDR1-expressing cells Papp ratio (P-gp (human MDR1); [9]): 17.1
- Control cells Papp ratio (P-gp (human MDR1); [10]): 1.2
- Corrected Papp ratio (P-gp (human MDR1); [10]): 17.4
- MDR1-expressing cells Papp ratio (P-gp (human MDR1); [10]): 20.9
- Control cells Papp ratio (P-gp (human MDR1); [11]): 1.0
- Corrected Papp ratio (P-gp (human MDR1); [11]): 19.2
- MDR1-expressing cells Papp ratio (P-gp (human MDR1); [11]): 19.2
- Control cells Papp ratio (P-gp (human MDR1); [12]): 1.0
- Corrected Papp ratio (P-gp (human MDR1); [12]): 21.7
- MDR1-expressing cells Papp ratio (P-gp (human MDR1); [12]): 21.7
- Control cells Papp ratio (P-gp (human MDR1); [13]): 1.0
- Corrected Papp ratio (P-gp (human MDR1); [13]): 18.3
- MDR1-expressing cells Papp ratio (P-gp (human MDR1); [13]): 18.3
- Control cells Papp ratio (P-gp (human MDR1); [14]): 1.0
- Corrected Papp ratio (P-gp (human MDR1); [14]): 21.3
- MDR1-expressing cells Papp ratio (P-gp (human MDR1); [14]): 21.3
- Inhibition of P-gp-mediated 3H-digoxin transport (P-gp (human MDR1); result in words): did not inhibit
- Fold increase CYP3A4 mRNA (CYP3A4 [2]; 1 µmol/L): 0.832 ± 0.417 fold
- Fold increase CYP3A4 mRNA (CYP3A4 [2]; 10 µmol/L): 1.17 ± 0.46 fold
- Fold increase CYP3A4 mRNA (CYP3A4 [2]; hepatocytes): 1.83 ± 0.98 fold
- Fold increase CYP1A2 mRNA (CYP1A2; 1 µmol/L): 0.697 ± 0.260 fold
- Fold increase CYP1A2 mRNA (CYP1A2; 10 µmol/L): 0.883 ± 0.303 fold
- Fold increase CYP1A2 mRNA (CYP1A2; [8]): 1.01 ± 0.59 fold
- Fold increase CYP2C8 mRNA (CYP2C8; 1 µmol/L): 1.11 ± 0.53 fold
- Fold increase CYP2C8 mRNA (CYP2C8; 10 µmol/L): 1.44 ± 0.50 fold
- Fold increase CYP2C8 mRNA (CYP2C8; [8]): 2.35 ± 1.66 fold
- Fold increase CYP2C9 mRNA (CYP2C9; 1 µmol/L): 0.853 ± 0.361 fold
- Fold increase CYP2C9 mRNA (CYP2C9; 10 µmol/L): 0.888 ± 0.172 fold
- Fold increase CYP2C9 mRNA (CYP2C9; [8]): 1.52 ± 0.63 fold
- Fold increase CYP2C19 mRNA (CYP2C19; 1 µmol/L): 0.855 ± 0.246 fold
- Fold increase CYP2C19 mRNA (CYP2C19; 10 µmol/L): 1.06 ± 0.10 fold
- Fold increase CYP2C19 mRNA (CYP2C19; [8]): 1.55 ± 0.80 fold

Structure (SMILES): CC1(C)C(=O)N(c2ccc(C#N)c(C(F)(F)F)c2)C(=S)N1c1ccc(C(N)=O)c(F)c1 [M2, N-desmethyl enzalutamide]
- IC50 (P-gp (human MDR1); read-out: IC50 (P-gp-mediated 3H-digoxin transport), 3H-digoxin 1 µmol/L, MDR1-expressing LLC-PK1 cells): 1.09 µM
- Ki (P-gp (human MDR1); read-out: Ki on P-gp, IC50 regarded as Ki, PBPK model input): 1.09 µM
- CLint,HLM ([3]; PBPK model parameter, see text): 1.399 μL/min/mg protein
- CYP3A4 contribution to M2 elimination ([3]; set to recover M2 exposure after multiple doses of enzalutamide): 9%
- Ki (OAT3): 11.5 µM
- AUCtau, observed [4, 17]: 278.3 µg·h/mL
- Cmax, observed [4, 17]: 12680 ng/mL
- Cmin, observed [4, 17]: 10570 ng/mL
- MPR (MWC), observed [4, 17]: 0.913
- AUCinf, observed [4, 18]: 395 µg·h/mL
- Cmax, observed [4, 18]: 887 ng/mL
- t1/2, observed [4, 18]: 179 h
- fu [5]: 0.0467

From publication PMC10460728 (Journal of Pharmacokinetics and Pharmacodynamics, 2023)
